Results from PMC9551036, “A selective and orally bioavailable VHL-recruiting PROTAC achieves SMARCA2 degradation in vivo” (Nature Communications, 2022).
Several values for one entry are separate records, joined by “and”; a condition that tells them apart may be missing. Equal entries are not always repeated. Where two headings read alike, the source gives them in different places.

Legend:
SMARCA2 [1] = target: T1, SMARCA2 (Homo sapiens, UniProt P51531); assay: SMARCA2 capillary electrophoresis protein assay in RKO cells; type: cell-based; parameters: endogenous in cells; host or cells: RKO, NCI-H1568, A549, HCT116, LU99, HCC-364, HCT-15, HCC4006, SK-N-AS
T1 sequence (P51531 whole entry): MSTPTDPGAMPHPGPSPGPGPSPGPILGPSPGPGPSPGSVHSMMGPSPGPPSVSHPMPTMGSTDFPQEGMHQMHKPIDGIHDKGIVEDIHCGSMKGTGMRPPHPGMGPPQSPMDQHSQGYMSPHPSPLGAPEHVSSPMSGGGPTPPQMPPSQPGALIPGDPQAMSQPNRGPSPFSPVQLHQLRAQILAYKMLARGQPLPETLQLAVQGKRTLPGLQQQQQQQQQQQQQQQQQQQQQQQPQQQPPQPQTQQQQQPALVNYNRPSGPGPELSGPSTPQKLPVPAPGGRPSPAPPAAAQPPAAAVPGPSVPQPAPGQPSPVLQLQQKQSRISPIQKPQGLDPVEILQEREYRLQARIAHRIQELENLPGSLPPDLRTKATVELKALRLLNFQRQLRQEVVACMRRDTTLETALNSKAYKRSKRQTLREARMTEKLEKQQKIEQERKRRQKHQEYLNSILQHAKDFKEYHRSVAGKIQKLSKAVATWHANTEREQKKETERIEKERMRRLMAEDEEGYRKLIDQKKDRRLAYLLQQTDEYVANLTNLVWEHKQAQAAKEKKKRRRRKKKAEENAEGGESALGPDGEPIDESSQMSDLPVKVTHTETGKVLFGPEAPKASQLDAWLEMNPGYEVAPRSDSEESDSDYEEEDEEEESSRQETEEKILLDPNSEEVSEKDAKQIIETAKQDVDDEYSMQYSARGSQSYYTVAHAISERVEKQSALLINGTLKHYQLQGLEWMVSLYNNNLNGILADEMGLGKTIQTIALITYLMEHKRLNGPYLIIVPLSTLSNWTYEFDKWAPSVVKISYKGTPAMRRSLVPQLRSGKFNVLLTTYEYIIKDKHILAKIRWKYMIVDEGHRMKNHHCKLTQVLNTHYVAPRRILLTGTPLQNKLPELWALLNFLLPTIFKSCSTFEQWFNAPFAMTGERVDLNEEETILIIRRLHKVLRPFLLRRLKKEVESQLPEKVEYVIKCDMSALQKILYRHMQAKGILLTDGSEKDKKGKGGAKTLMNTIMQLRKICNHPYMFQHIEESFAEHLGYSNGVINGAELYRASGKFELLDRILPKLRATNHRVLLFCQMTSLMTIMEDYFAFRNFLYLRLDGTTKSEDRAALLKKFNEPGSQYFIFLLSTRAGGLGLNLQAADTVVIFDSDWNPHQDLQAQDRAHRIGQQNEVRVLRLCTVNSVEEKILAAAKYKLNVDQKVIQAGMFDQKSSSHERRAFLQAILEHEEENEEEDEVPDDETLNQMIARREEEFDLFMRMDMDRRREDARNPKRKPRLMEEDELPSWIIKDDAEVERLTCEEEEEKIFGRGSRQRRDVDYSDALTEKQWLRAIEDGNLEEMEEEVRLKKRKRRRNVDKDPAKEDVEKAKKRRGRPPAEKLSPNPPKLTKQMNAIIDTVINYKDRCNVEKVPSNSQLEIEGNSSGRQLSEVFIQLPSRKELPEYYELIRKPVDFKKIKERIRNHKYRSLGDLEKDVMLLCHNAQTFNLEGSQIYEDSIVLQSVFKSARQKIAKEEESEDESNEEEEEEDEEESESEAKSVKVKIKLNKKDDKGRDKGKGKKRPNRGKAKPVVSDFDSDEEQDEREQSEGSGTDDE
Description: 130,000–200,000 cells were seeded in 24-well plates and incubated until settled down or overnight. Compounds were dissolved in DMSO and added to cells in indicated concentrations using a digital dispenser following an optional media change. […] For SMARCA2/4 half-life determination, 150,000 or 200,000 cells were seeded in 24-well plates. […] For SMARCA2/4 re-synthesis measurements, 200,000 cells were seeded in 24-well plates. […] Medium was removed, cells were washed with PBS and lysed with 80 µl Lysis Buffer (MSD Tris Lysis Buffer (#R60TX-2) + Halt Inhibitor Cocktail (100x) + Benzonase 0.5 µL/ml). Samples were frozen at −80 °C and thawed at room temperature before use. Samples were transferred to a V-bottom plate and insoluble debris was pelleted by centrifugation for 5 min at maximum speed. The supernatant was transferred to a fresh plate. Master Mix and Ladder were prepared according to manufacturer’s instructions for 12–230 kDa Wes Separation Module, 8 × 25 capillary cartridges, Protein Simple #SM-W004 with Anti-Rabbit Detection Module for Wes, Peggy Sue or Sally Sue, Protein Simple #DM-001. 4.8 µl lysate were mixed with 1.2 µl Master Mix to achieve a protein concentration of ~0.5 µg/µl. […] Wes plates were prepared and run according to manufacturer’s instructions. Proteins were quantified with accompanying Compass Software. SMARCA2/4 protein levels were normalised to GAPDH. […] Where applicable, curves were fitted using a 4-parametric logistic model.

SMARCA2 [2] = target: T1, SMARCA2; assay: Imaging-based SMARCA2 protein assay in RKO cells; type: cell-based; parameters: endogenous in cells; host or cells: RKO, NCI-H1568, A549, HCT116, LU99, HCC-364, HCT-15, HCC4006, SK-N-AS; conditions: individual replicates
Description: 1250 cells per well in 60 µl medium were plated in flat bottom, poly-lysin coated 384-well plates (CellCarrier Ultra, Perkin Elmer). The next day, test compounds (10 µl of serial dilutions) and DMSO controls were diluted in DMEM medium such that the final DMSO content was <1% or were added using an ultrasound dispensing system. 4 wells were reserved for a background measurement. […] After aspirating the fixing solution, the cells were washed once with 25 µl PBS. 25 µl of blocking buffer (10% goat serum in PBS) was added and cells were incubated for 30 min, then washed once with PBS. […] Cells were again washed once with PBS. […] The cell layer was then washed once with 25 µl PBS, the wells were filled with 25 µl PBS and the plates were sealed with an adhesive sheet. They were then imaged on the Opera Phoenix (mean intensity in the nucleus). […] EC50 values were computed using a 4-parametric logistic model.

PBRM1 BD = target: T2, PBRM1 BD (Homo sapiens, UniProt Q86U86); assay: TR-FRET binary and ternary (PROTAC + VCB) affinity, PBRM1 bromodomain; type: binding; conditions: individual replicates
T2 construct: GST (TEV site) (N); made in house; host or cells: Escherichia coli BL21(DE3)

PBRM1BD5 = target: T3, PBRM1BD5 (Homo sapiens, UniProt Q86U86); assay: TR-FRET ternary complex affinity and cooperativity, PBRM1; type: binding
T3 construct: GST (TEV site) (N); His6 (TEV site) (N, cleaved yes); made in house; host or cells: PBRM1^BD5: Escherichia coli BL21(DE3)
T3 sequence (Q86U86 645-766): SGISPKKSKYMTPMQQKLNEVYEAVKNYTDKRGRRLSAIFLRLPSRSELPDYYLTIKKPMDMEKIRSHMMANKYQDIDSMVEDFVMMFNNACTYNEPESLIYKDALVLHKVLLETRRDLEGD

[3] = 4h, read-out: RKO (4h) SMARCA2 DC50
[4] = 18h, read-out: RKO (18h) SMARCA2 DC50
[5] = PBRM1 EC50, binary, PROTAC alone
[6] = Ternary PBRM1 BD EC50 (PROTAC + VCB), PROTAC + VCB
[7] = PROTAC + VCB, read-out: Ternary PBRM1 BD EC50 (PROTAC + VCB)
[8] = binary, PROTAC alone, read-out: PBRM1 EC50
[9] = TR-FRET competition for PBRM1BD5, without VCB, mean ± SD, read-out: TR-FRET PBRM1BD EC50

Row | SMILES | DC50 (SMARCA2 [1]; RKO (4 h), mean ± SD) [nM] | window of SMARCA2 over SMARCA4 degradation (SMARCA2 [1]; RKO cells) [fold] | DC50 (SMARCA2 [1]; RKO cells, time not stated at the place (Supplementary Data 2)) [nM] | Dmax (SMARCA2 [1]; RKO, RKO (4 h), mean ± SD) [%] | Dmax (SMARCA2 [1]; RKO, RKO (18 h), mean ± SD) [%] | Bottom (% protein remaining, four-parameter fit) (SMARCA2 [1]; RKO, SM2) [%] | HillSlope (protein remaining) (SMARCA2 [1]; RKO, SM2) | Top (% protein remaining, four-parameter fit) (SMARCA2 [1]; RKO, SM2) [%] | DC50 (SMARCA2 [2]; [3]) | DC50 (SMARCA2 [2]; [4]) | EC50 (PBRM1 BD; [5]) | EC50 (PBRM1 BD; [6]) | EC50 (PBRM1BD5) [nM] | DC50 (SMARCA2 [1]; RKO (18 h), mean ± SD) [nM] | EC50 (PBRM1 BD; [7]) | EC50 (PBRM1 BD; [8]) | EC50 (PBRM1BD5; [9]) [nM] | selectivity for SMARCA2 over SMARCA4 degradation (SMARCA2 [1]; Supplementary Data 2) | SMARCA2/4 selectivity improvement on linker elongation (compound 11 compared with compound 6) (SMARCA2 [1]; all-carbon linker series)
1 | Cc1ncsc1-c1ccc(C(CCC(C)CCN2CCC(c3ccc4c(c3)n(C3CCCC3)c3nc(=O)c5c(Br)cccc5n43)CC2)NC(=O)C2CC(O)CN2C(=O)C(NC(=O)C2(F)CC2)C(C)(C)C)cc1 (stereo not shown) [ACBI2] | 4 ± 1 | > 30 | 1 | 71 ± 2 | 81 ± 7 | 21.72 | -0.9367 | 158.8 | 3.55 nM and 1.63 nM and 1.77 nM and 3.45 nM and 4.01 nM and 4.03 nM and 3.11 nM | 2 nM and 2.28 nM and 1.37 nM and 1.63 nM and 1.15 nM and 1.22 nM and 1.53 nM and 0.997 nM and 1.43 nM and 0.892 nM | 59.3 nM and 67.2 nM and 77.7 nM | 3.83 nM and 5.7 nM and 5.49 nM | 67 ± 9 | – | – | – | – | – | –
2 | O=c1nc2n(C3CCCC3)c3ccccc3n2c2cccc(Br)c12 [compound 1] | > 25000 | – | – | – | – | – | – | – | > 25000 nM | > 25000 nM | – | – | – | > 25000 | 129 nM and 124 nM and 140 nM | 124 nM and 116 nM and 167 nM | 134 ± 28 | – | –
3 | Nc1cccc2c1c(=O)nc1n(C3CCCC3)c3ccccc3n21 [compound 2] | > 25000 | – | – | – | – | – | – | – | > 25000 nM | > 25000 nM | – | – | – | > 25000 | 934 nM and 1020 nM and 925 nM | 1080 nM and 1000 nM and 929 nM | 1000 | – | –
4 | CN1CCC(c2ccc3c(c2)n(C2CCCC2)c2nc(=O)c4c(Br)cccc4n32)CC1 [compound 3] | > 25000 | – | – | – | – | – | – | – | > 25000 nM | 20000 nM and 24900 nM and 22400 nM | – | – | – | 22300 | 49.4 nM and 29.7 nM (2×) and 21.8 nM and 18 nM and 21.3 nM and 22.2 nM and 18.6 nM and 21.6 nM and 46 nM and 35.8 nM and 25 nM and 35.5 nM (2×) and 36.4 nM and 29.1 nM and 25.9 nM and 29.2 nM and 27.1 nM and 30.4 nM (2×) and 31.6 nM and 33.5 nM and 23 nM (2×) and 29.5 nM and 54.4 nM and 51.5 nM and 24 nM and 36.6 nM and 32.2 nM and 65.8 nM and 63.7 nM and 42.6 nM and 25.7 nM and 43.8 nM and 40.2 nM and 16.5 nM and 24.8 nM and 34.1 nM and 26.1 nM and 30.2 nM | 27.3 nM and 29.3 nM and 18.1 nM and 21.5 nM and 21.7 nM and 19.9 nM and 23.1 nM and 18.9 nM and 42.5 nM and 22.4 nM and 27 nM and 28.2 nM and 20.7 nM and 30.6 nM and 34 nM (3×) and 32.6 nM and 30.2 nM and 34.7 nM and 36.6 nM and 33.4 nM and 20.8 nM and 53.5 nM and 23.4 nM and 49.7 nM and 23 nM and 24 nM and 38.4 nM and 37.6 nM and 35 nM and 67.5 nM and 70.9 nM and 46.6 nM and 44.1 nM and 25.3 nM and 42.6 nM and 18.7 nM and 31.1 nM and 26.8 nM and 30.5 nM and 40.9 nM | 31 ± 12 | – | –
5 | Cc1ncsc1-c1ccc([C@H](COC(C)CN2CCC(c3ccc4c(c3)n(C3CCCC3)c3nc(=O)c5c(Br)cccc5n43)CC2)NC(=O)[C@@H]2C[C@@H](O)CN2C(=O)[C@@H](NC(=O)C2(F)CC2)C(C)(C)C)cc1 (stereo partly shown) [compound 9] | 12 ± 4 | – | – | 72 ± 7 | 76 ± 10 | – | – | – | 11.4 nM and 10.4 nM and 9.77 nM and 18.8 nM | 4.73 nM and 4.97 nM and 4.9 nM and 3.53 nM | – | – | – | 5 ± 1 | 6.04 nM and 5.66 nM and 5.49 nM and 5.75 nM and 6.81 nM and 13.2 nM and 4.82 nM | 31.7 nM and 35 nM and 40.8 nM and 29.8 nM and 31 nM | 34 ± 4 | remarkable selectivity | –
6 | Cc1ncsc1-c1ccc([C@H](COC(C)CN2CCC(c3ccc4c(c3)n(C3CCCC3)c3nc(=O)c5c(Br)cccc5n43)CC2)NC(=O)[C@@H]2C[C@@H](O)CN2C(=O)[C@@H](NC(=O)C2(N(C)C)CC2)C(C)(C)C)cc1 (stereo partly shown) [compound 10] | 6 ± 3 | – | – | 70 ± 2 | 82 ± 5 | – | – | – | 8.19 nM and 6.54 nM and 2.93 nM and 10.6 nM | 1.26 nM and 3.06 nM and 6.17 nM | – | – | – | 3 ± 3 | 6.43 nM and 7.96 nM and 8.03 nM and 9.7 nM | 30.5 nM and 31.7 nM and 30 nM | 31 ± 1 | – | –
7 | Cc1ncsc1-c1ccc([C@H](CCCCCN2CCC(c3ccc4c(c3)n(C3CCCC3)c3nc(=O)c5c(Br)cccc5n43)CC2)NC(=O)[C@@H]2C[C@@H](O)CN2C(=O)[C@@H](NC(=O)C2(F)CC2)C(C)(C)C)cc1 [compound 11] | 2 ± 1 | – | – | 73 ± 6 | 87 ± 2 | – | – | – | 1.71 nM and 0.766 nM and 2.04 nM and 3.68 nM | 0.942 nM and 1.07 nM and 0.993 nM and 0.885 nM | – | – | – | 1 ± 0.1 | 3.17 nM and 4.26 nM and 3.96 nM | 43.1 nM and 50 nM and 41.1 nM and 31.5 nM | 41 ± 8 | – | two- to threefold
8 | Cc1ncsc1-c1ccc([C@H](CC[C@H](C)CCN2CCC(c3ccc4c(c3)n(C3CCCC3)c3nc(=O)c5c(Br)cccc5n43)CC2)NC(=O)[C@@H]2C[C@H](O)CN2C(=O)[C@@H](NC(=O)C2(F)CC2)C(C)(C)C)cc1 [compound 12] | > 25000 | – | – | – | 82 ± 16 | – | – | – | > 25000 nM | 10700 nM and 4780 nM and 8270 nM and > 25000 nM | 67.7 nM and 82.1 nM and 74.9 nM | 67.9 nM and 85.8 nM and 79.7 nM | 75 ± 6 | – | – | – | – | – | –
